Assay results from BindingDB's records for doi:10.1016/j.bmcl.2019.04.027 (Gilead Sciences, 2019).

Assays:
[1] = Inhibition of NS5A A30K mutant in HCV genotype 3a infected in human HuH7 replicon cells assessed as reduction in viral replication after 3 days by luciferase reporter gene assay
[2] = Inhibition of NS5A K44R mutant in HCV genotype 2a infected in human HuH7 replicon cells assessed as reduction in viral replication after 3 days by luciferase reporter gene assay
[3] = Inhibition of NS5A R44K mutant in HCV genotype 2b infected in human HuH7 replicon cells assessed as reduction in viral replication after 3 days by luciferase reporter gene assay
[4] = Inhibition of NS5A in HCV wild type genotype 2a infected in human HuH7 replicon cells assessed as reduction in viral replication after 3 days by luciferase reporter gene assay
[5] = Inhibition of NS5A in wild type HCV genotype 3a infected in human HuH7 replicon cells assessed as reduction in viral replication after 3 days by luciferase reporter gene assay
[6] = Inhibition of NS5A in wild type HCV genotype 2b MD2b-1 infected in human HuH7 replicon cells assessed as reduction in viral replication after 3 days by luciferase reporter gene assay
[7] = Inhibition of NS5A in HCV genotype 2b MD2b-1 infected in human HuH7 replicon cells assessed as reduction in viral replication after 3 days by luciferase reporter gene assay
[8] = Inhibition of NS5A in HCV genotype 1b Con1 infected in human HuH7 replicon cells assessed as reduction in viral replication after 3 days by luciferase reporter gene assay
[9] = Inhibition of NS5A in HCV genotype 3a S52 infected in human HuH7 replicon cells assessed as reduction in viral replication after 3 days by luciferase reporter gene assay
[10] = Inhibition of NS5A L31M mutant in HCV genotype 1a infected in human HuH7 replicon cells assessed as reduction in viral replication after 3 days by luciferase reporter gene assay
[11] = Inhibition of NS5A in HCV genotype 1a H77 infected in human HuH7 replicon cells assessed as reduction in viral replication after 3 days by luciferase reporter gene assay
[12] = Inhibition of NS5A N62S mutant in HCV genotype 2a infected in human HuH7 replicon cells assessed as reduction in viral replication after 3 days by luciferase reporter gene assay
[13] = Inhibition of NS5A Q30H mutant in HCV genotype 1a infected in human HuH7 replicon cells assessed as reduction in viral replication after 3 days by luciferase reporter gene assay
[14] = Inhibition of NS5A in wild type HCV genotype 1a infected in human HuH7 replicon cells assessed as reduction in viral replication after 3 days by luciferase reporter gene assay
[15] = Inhibition of NS5A in HCV genotype 5a SA13 infected in human HuH7 replicon cells assessed as reduction in viral replication after 3 days by luciferase reporter gene assay
[16] = Inhibition of NS5A Y93H mutant in HCV genotype 1a infected in human HuH7 replicon cells assessed as reduction in viral replication after 3 days by luciferase reporter gene assay
[17] = Inhibition of NS5A Y93C mutant in HCV genotype 1a infected in human HuH7 replicon cells assessed as reduction in viral replication after 3 days by luciferase reporter gene assay
[18] = Inhibition of NS5A in wild type HCV genotype 1b infected in human HuH7 replicon cells assessed as reduction in viral replication after 3 days by luciferase reporter gene assay
[19] = Inhibition of NS5A Q30R mutant in HCV genotype 1a infected in human HuH7 replicon cells assessed as reduction in viral replication after 3 days by luciferase reporter gene assay
[20] = Inhibition of NS5A P58S mutant in HCV genotype 2b infected in human HuH7 replicon cells assessed as reduction in viral replication after 3 days by luciferase reporter gene assay
[21] = Inhibition of NS5A in HCV genotype 6a HK6 infected in human HuH7 replicon cells assessed as reduction in viral replication after 3 days by luciferase reporter gene assay
[22] = Inhibition of NS5A in HCV genotype 6e D88 infected in human HuH7 replicon cells assessed as reduction in viral replication after 3 days by luciferase reporter gene assay
[23] = Inhibition of NS5A in HCV genotype 2a JFH1 infected in human HuH7 replicon cells assessed as reduction in viral replication after 3 days by luciferase reporter gene assay
[24] = Inhibition of NS5A M28T mutant in HCV genotype 1a infected in human HuH7 replicon cells assessed as reduction in viral replication after 3 days by luciferase reporter gene assay
[25] = Inhibition of NS5A Q30E mutant in HCV genotype 1a infected in human HuH7 replicon cells assessed as reduction in viral replication after 3 days by luciferase reporter gene assay
[26] = Inhibition of NS5A in HCV genotype 2a J6 infected in human HuH7 replicon cells assessed as reduction in viral replication after 3 days by luciferase reporter gene assay
[27] = Inhibition of NS5A in HCV genotype 4a ED43 infected in human HuH7 replicon cells assessed as reduction in viral replication after 3 days by luciferase reporter gene assay
[28] = Inhibition of NS5A N62V mutant in HCV genotype 2a infected in human HuH7 replicon cells assessed as reduction in viral replication after 3 days by luciferase reporter gene assay
[29] = Inhibition of NS5A in wild type HCV genotype 2b AY232738 infected in human HuH7 replicon cells assessed as reduction in viral replication after 3 days by luciferase reporter gene assay
[30] = Inhibition of NS5A Y93H mutant in HCV genotype 1b infected in human HuH7 replicon cells assessed as reduction in viral replication after 3 days by luciferase reporter gene assay
[31] = Inhibition of NS5A Y93H mutant in HCV genotype 3a infected in human HuH7 replicon cells assessed as reduction in viral replication after 3 days by luciferase reporter gene assay
[32] = Inhibition of NS5A L31M mutant in HCV genotype 2a J6 (M31) infected in human HuH7 replicon cells assessed as reduction in viral replication after 3 days by luciferase reporter gene assay

COC(=O)N[C@H](C(=O)N1CC2(CC2)C[C@H]1c1nc(-c2ccc3c(c2)C(F)(F)c2cc(-c4ccc5[nH]c([C@@H]6[C@H]7CC[C@H](C7)N6C(=O)[C@@H](NC(=O)OC)C(C)C)nc5c4)ccc2-3)c[nH]1)C(C)C [CHEBI:85089]
EC50 [1]: > 89 nM
EC50 [2]: 164 nM
EC50 [3]: 943 nM
EC50 [4]: 209 nM
EC50 [5]: > 45 nM
EC50 [6]: 865 nM
EC50 [7]: 530 nM
EC50 [8]: 0.004 nM
EC50 [9]: 168 nM
EC50 [10]: 17 nM
EC50 [11]: 0.031 nM
EC50 [12]: 123 nM
EC50 [13]: 5.7 nM
EC50 [14]: 0.031 nM
EC50 [15]: 0.15 nM
EC50 [16]: 52 nM
EC50 [17]: 50 nM
EC50 [18]: 0.004 nM
EC50 [19]: 20 nM
EC50 [20]: 292 nM
EC50 [21]: 1.1 nM
EC50 [22]: 264 nM
EC50 [23]: 21 nM
EC50 [24]: 1.9 nM
EC50 [25]: 169 nM
EC50 [26]: 249 nM
EC50 [27]: 0.39 nM
EC50 [28]: 222 nM
EC50 [29]: 211 nM
EC50 [30]: 7.2 nM
EC50 [31]: > 89 nM

COC[C@H]1C[C@@H](c2nc(-c3ccc4c(c3)COc3cc5c(ccc6nc([C@@H]7CC[C@H](C)N7C(=O)[C@@H](NC(=O)OC)C(C)C)[nH]c65)cc3-4)c[nH]2)N(C(=O)[C@H](NC(=O)OC)c2ccccc2)C1 [GS-5816]
EC50 [1]: 0.21 nM
EC50 [2]: 0.005 nM
EC50 [3]: 0.011 nM
EC50 [4]: 0.009 nM
EC50 [5]: 0.013 nM
EC50 [6]: 0.004 nM
EC50 [7]: 0.006 nM
EC50 [8]: 0.016 nM
EC50 [9]: 0.004 nM
EC50 [10]: 0.22 nM
EC50 [11]: 0.014 nM
EC50 [12]: 0.003 nM
EC50 [13]: 0.032 nM
EC50 [14]: 0.014 nM
EC50 [15]: 0.054 nM
EC50 [16]: 8.5 nM
EC50 [17]: 0.053 nM
EC50 [18]: 0.016 nM
EC50 [32]: 0.016 nM
EC50 [19]: 0.031 nM
EC50 [20]: 0.01 nM
EC50 [21]: 0.006 nM
EC50 [22]: 0.13 nM
EC50 [23]: 0.008 nM
EC50 [24]: 0.105 nM
EC50 [25]: 0.25 nM
EC50 [26]: 0.016 nM
EC50 [27]: 0.009 nM
EC50 [28]: 0.01 nM
EC50 [29]: 0.007 nM
EC50 [30]: 0.011 nM
EC50 [31]: 3.2 nM
